Measurements reported in US4537729A, “Dimethylphosphoramidates” (Development of Finance Corporation of New Zealand, priority 1981, dated 1985).
Where two headings read alike, the source gives them in different places.

Experiments:
[1] = system: L1210 tumour cells; experiment: L1210 murine leukaemia cell culture, growth inhibition over 70 hours; assay type: cell-based; conditions: Mus musculus
[2] = Reversed-phase partition chromatography (Rm); assay type: physicochemical; conditions: lipophilic-hydrophilic balance, linearly related to 1-octanol/water partition coefficients
Text: Rm=a measure of the compound's lipophilic-hydrophilic balance from reversed-phase partition chromatography. Rm is linearly related to partition coefficients obtained in the 1-octanol/water system.

[3] = system: P388 leukaemia; experiment: P388 leukaemia in vivo test in mice (i.p.); design: species or system mouse; conditions: for ILS (percentage increase in life span): at optimal dose (OD), days 1, 5 and 9, P388 i.p., controls survive 11 days, >20% significant; for Active: at the stated dose, P388 in vivo
Text: The P388 mouse leukaemia system has been shown by studies at the National Cancer Institute, U.S.A., to be a useful system for detecting agents with antitumour activity against clinical cancer (A. Goldin, J. M. Venditti, J. S. MacDonald, F. M. Muggia, J. E. Henney and V. T. De Vita, Europ.J.Cancer 17, 129-142 (1981).
Tumour P388 i.p.--P388 cells were obtained as frozen stocks from Mason Research Inc., U.S.A., and passaged introperitoneally according to standard methods (Cancer Chemother.Rep. 3, Part 3, page 9 (1972) in DBA-2 mice of either sex. Groups of six Fl hybrid mice (DBA-2 male x C57 Bl female, g weight 20±1 g) were injected intraperitoneally with 10^6 cells on day 0.
O.D.=optimal drug dose (in milligrams per kilogram), administered as a solution in 0.1 ml of 30% v/v ethyl alcohol in water on days 1, 5 and 9 after tumour inoculation. The drug is administered as a soluble acid addition salt.
ILS=percentage increase in life span of treated animals over that of groups of control animals injected with tumour alone. The average survival of control mice was 11 days. Values of ILS greater than 20% are considered statistically significant.
"Y. implies a significant value of drug activity at the stated dose.".

[4] = system: bacillus subtilis; experiment: Antibacterial activity; assay type: cell-based
[5] = system: streptococcus faecalis; experiment: Antibacterial activity; assay type: cell-based
[6] = system: xanthomonas phaseoli; experiment: Antibacterial activity; assay type: cell-based
[7] = system: neisseria catarrhalis; experiment: Antibacterial activity; assay type: cell-based
[8] = system: micrococcus lysodeikticus; experiment: Antibacterial activity; assay type: cell-based
[9] = system: eschereichia coli; experiment: Antibacterial activity; assay type: cell-based
[10] = system: staphylococcus aureus; experiment: Antibacterial activity; assay type: cell-based
[11] = system: alcaligenes viscolactis; experiment: Antibacterial activity; assay type: cell-based
[12] = system: aerobacter aerogenes; experiment: Antibacterial activity; assay type: cell-based
[13] = system: sarcina lutea; experiment: Antibacterial activity; assay type: cell-based
[14] = system: tumour; conditions: literature; cited from earlier work

SMILES	IC50 ([1]; L1210, 70 h, read-out: ID50)	chromatographic logP [2]	ILS (percentage increase in life span) [3]	Active [3]	also measured
COP(=O)(Nc1ccc(Nc2c3ccccc3nc3c(C)cccc23)cc1)OC [Compound 13]	8.9 nM	0.46	111%	Y	
COP(=O)(Nc1ccc(Nc2c3ccccc3nc3cc(C)ccc23)cc1)OC [Compound 3]	6.8 nM	0.49	80%	Y	
COc1cc(NP(=O)(OC)OC)ccc1Nc1c2ccccc2nc2cc(Br)ccc12 [Compound 7]	4.9 nM	0.57	83%	Y	
CNC(=O)c1cccc2c(Nc3ccc(NP(=O)(OC)OC)cc3OC)c3ccccc3nc12 [Compound 12]	18 nM	0.28	118%	Y	
COP(=O)(Nc1ccc(Nc2c3cccc(C)c3nc3c(C)cccc23)cc1)OC [Compound 16]	17 nM	0.37	109%	Y	
COc1cc(NP(=O)(OC)OC)ccc1Nc1c2ccccc2nc2c(C)cccc12 [Compound 14]	18 nM	0.44	106%	Y	
COc1cccc2c(Nc3ccc(NP(=O)(OC)OC)cc3)c3ccccc3nc12 [Compound 9]	20 nM	0.33	44%	Y	
COc1cc(NP(=O)(OC)OC)ccc1Nc1c2ccccc2nc2cc(Cl)ccc12 [Compound 5]	12 nM	0.61	78%	Y	
COc1cc(NP(=O)(OC)OC)ccc1Nc1c2ccccc2nc2ccccc12 [Compound 2]	70 nM	0.47	67%	Y	
COc1cc(NP(=O)(OC)OC)ccc1Nc1c2ccccc2nc2c(OC)cccc12 [Compound 10]	12 nM	0.47	76%	Y	
COc1cc(NS(C)(=O)=O)ccc1Nc1c2ccccc2nc2ccccc12 [Compound 18, 4'-(9-acridinylamino)methanesulphon-m-anisidide, reference compound]			78%	Y	
CNC(=O)c1cccc2c(Nc3ccc(NP(=O)(OC)OC)cc3OC)c3ccc(Cl)cc3nc12 [Compound 15]	50 nM	0.54	79%	Y	
COP(=O)(Nc1ccc(Nc2c3ccccc3nc3ccccc23)cc1)OC [Compound 1]	15 nM	0.31	74%	Y	antibacterial activity [4]: active; antibacterial activity [5]: active; antibacterial activity [6]: active; antibacterial activity [7]: active; antibacterial activity [8]: active; antibacterial activity [9]: active; antibacterial activity [10]: active; antibacterial activity [11]: active; antibacterial activity [12]: active; antibacterial activity [13]: active
CNC(=O)c1cccc2c(Nc3ccc(NP(=O)(OC)OC)cc3)c3ccccc3nc12 [Compound 11]	97 nM	0.18	38%	Y	
COP(=O)(Nc1ccc(Nc2c3ccccc3nc3cc(Cl)ccc23)cc1)OC [Compound 4]	16 nM	0.46	54%	Y	
COP(=O)(Nc1ccc(Nc2c3ccccc3nc3cc(Br)ccc23)cc1)OC [Compound 6]	15 nM	0.47	76%	Y	
CS(=O)(=O)Nc1ccc(Nc2c3ccccc3nc3ccccc23)cc1 [Compound 17, 4'-(9-acridinylamino)methanesulphonanilide, reference compound]			93%	Y	IC50 ([1]; murine L1210 leukaemia cells, 70 hours, counted cell number reduced by 50%, read-out: ID50 (the source's name)): 35 nM; antitumour effect (earlier work) [14]: marked antitumour effect
COP(=O)(Nc1ccc(Nc2c3ccccc3nc3cc([N+](=O)[O-])ccc23)cc1)OC [Compound 8]	74 nM	0.14	22%	Y	
